Results as given in patent US20230090868A1, “ANTI-CD30 ANTIBODY-DRUG CONJUGATES AND THEIR USE FOR THE TREATMENT OF NON-HODGKIN LYMPHOMA” (Seagen Inc., priority 2020, published 2023).
Like-named read-outs stand apart in the source and are kept apart here.

What was measured:
R/R DLBCL = settings: cited from earlier work
[1] = Phase I trial dose-escalation phase: maximum tolerated dose (MTD) and dose-limiting toxicities; format: in vivo, human; settings: lenalidomide in combination with BV; by mouth Days 1-21 of each 21-day cycle; rel/ref DLBCL patients
Source text: The maximum tolerated dose (MTh) was defined as the dose level immediately below the dose level at which 2 patients of a cohort (of 2 to 6 patients) experienced dose-limiting toxicity during the first cycle. Dose escalations proceeded until the MTD was reached.
Hematologic dose limiting toxicity (DLT) was defined as any of the following that occured during the first cycle that were attributed as possibly, probably, or definitely related to the study treatment: • Grade 4 neutropenia >7 day duration • Grade 4 infection with grade 3 or 4 neutropenia (life-threatening sepsis) • Grade 4 thrombocytopenia associated with life-threatening bleeding or requiring more than 1 transfusion • Treatment delay >14 days due to hematologic toxicity
Non-hematologic DLT was defined as any possibly, probably, or definitely related grade 3 or grade 4 non-hematologic toxicity that occured during the first cycle with the following specific exceptions: • Grade 3 or 4 nausea, vomiting, or anorexia that returns to Grade 1 prior to the start of Cycle 2 • Grade 3 metabolic abnormalities (e.g., hyperglycemia) • Grade 3 fatigue
Dose escalations proceeded as follows after the occurrence of dose-limiting toxicity (DLT):
Dose escalation occurred after all patients in the cohort completed the first cycle according to the following scheme: […]

P-gp [2] = molecular target: T1, P-gp (Homo sapiens, UniProt P08183); settings: controlled studies; cited from earlier work
[3] = single 25 mg dose with a high-fat meal, healthy subjects; cited from earlier work
[4] = cited from earlier work
P-gp [5] = molecular target: T1, P-gp; settings: in vitro; cited from earlier work
CD30+ cell lines = settings: in vitro; cited from earlier work
[6] = system: xenograft models of Hodgkin disease; settings: SCID mouse xenograft models of Hodgkin disease; cited from earlier work

T1 sequence (P08183 whole entry): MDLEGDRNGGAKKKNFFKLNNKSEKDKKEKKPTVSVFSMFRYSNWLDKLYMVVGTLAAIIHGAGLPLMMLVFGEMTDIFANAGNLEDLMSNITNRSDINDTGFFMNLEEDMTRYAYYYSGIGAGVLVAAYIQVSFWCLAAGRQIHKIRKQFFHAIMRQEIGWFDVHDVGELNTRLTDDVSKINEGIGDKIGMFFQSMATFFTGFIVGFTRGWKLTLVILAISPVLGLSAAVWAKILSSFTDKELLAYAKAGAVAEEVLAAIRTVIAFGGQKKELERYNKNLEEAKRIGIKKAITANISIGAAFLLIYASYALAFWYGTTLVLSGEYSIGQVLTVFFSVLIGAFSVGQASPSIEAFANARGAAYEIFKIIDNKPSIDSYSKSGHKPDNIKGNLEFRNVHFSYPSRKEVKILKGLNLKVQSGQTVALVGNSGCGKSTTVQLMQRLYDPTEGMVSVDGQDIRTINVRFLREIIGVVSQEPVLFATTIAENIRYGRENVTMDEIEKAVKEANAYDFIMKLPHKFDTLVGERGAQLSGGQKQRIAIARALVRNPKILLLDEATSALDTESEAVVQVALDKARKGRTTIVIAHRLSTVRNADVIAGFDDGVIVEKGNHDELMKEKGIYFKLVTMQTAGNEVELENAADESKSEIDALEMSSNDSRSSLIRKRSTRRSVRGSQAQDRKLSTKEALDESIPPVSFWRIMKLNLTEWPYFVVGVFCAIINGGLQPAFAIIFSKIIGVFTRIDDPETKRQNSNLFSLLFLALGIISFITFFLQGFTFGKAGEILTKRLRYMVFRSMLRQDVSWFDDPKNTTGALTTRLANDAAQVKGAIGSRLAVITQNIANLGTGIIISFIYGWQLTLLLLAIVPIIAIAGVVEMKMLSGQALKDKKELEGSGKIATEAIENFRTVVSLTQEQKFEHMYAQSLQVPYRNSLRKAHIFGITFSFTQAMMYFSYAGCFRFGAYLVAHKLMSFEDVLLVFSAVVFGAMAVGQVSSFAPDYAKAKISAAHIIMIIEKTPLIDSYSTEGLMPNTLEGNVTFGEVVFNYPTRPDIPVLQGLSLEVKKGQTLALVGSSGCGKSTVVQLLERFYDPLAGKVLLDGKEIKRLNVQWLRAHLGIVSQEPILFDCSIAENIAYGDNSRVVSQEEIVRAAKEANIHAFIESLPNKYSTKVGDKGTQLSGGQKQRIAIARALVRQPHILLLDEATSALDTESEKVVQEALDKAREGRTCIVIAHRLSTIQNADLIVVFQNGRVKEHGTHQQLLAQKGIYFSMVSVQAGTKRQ

Row | Molecule | median progression-free survival (PFS) (R/R DLBCL; GCB subjects, P=0.550) [weeks] | median progression-free survival (PFS) (R/R DLBCL; all subjects with R/R DLBCL, P=0.041) [weeks] | median progression-free survival (PFS) (R/R DLBCL; non-germinal-center B-cell-like (non-GCB) subjects, P=0.021) [weeks] | objective response rate (ORR) (R/R DLBCL; subjects with R/R DLBCL) [%] | maximum tolerated dose (MTD) [1] [mg] | PK interactions with P-gp substrates/inhibitors (P-gp [2]) | decrease in area under the concentration-time curve [3] [%] | decrease in maximum plasma concentration (Cmax) [3] [%] | drug accumulation ([4]; multiple doses at the recommended dosage) | time post-dose at which maximum plasma concentrations occurred ([4]; single and multiple doses, subjects with MM or MDS, (approximately 0.5 to 6 hours)) [h] | substrate of P-gp (P-gp [5]) | growth arrest of CD30+ cell lines (CD30+ cell lines) | antitumor activity [6]
1 | Nc1cccc2c1CN(C1CCC(=O)NC1=O)C2=O (racemic) [lenalidomide, (RS)-3-(4-Amino-1-oxo-1,3-dihydro-2H-isoindol-2-yl)piperidine-2,6-dione] | 10.1 | 13.6 | 15.1 | 27.5 | 20 | does not have clinically significant PK interactions | ~20 | ~50 | does not result in drug accumulation | 1 | weak substrate |  | 
2 | cAC10: chimeric IgG1 monoclonal antibody that specifically binds CD30 |  |  |  |  |  |  |  |  |  |  |  | induces growth arrest | pronounced antitumor activity
